According to patent US20260209305A1, “THERAPEUTIC EXPLOITATION OF STING CHANNEL ACTIVITY” (The Broad Institute Inc., priority 2022, published 2026):
Values belong to the compound of their own block, whether it stands above or below them.

Assays:
NLRP3 inflammasome = experiment: Inflammasome activation and IL-1ß release in primary human monocytes; type: cell-based
STING [1] = target: T1, STING (Homo sapiens, UniProt Q86WV6); experiment: STING-induced autophagy: LC3 lipidation, RFP-LC3 imaging in FIP200 KO 293T cells and western blot in BJ1 cells; type: cell-based; parameters: expressed in transfected cells; host or cells: FIP200 KO 293T cells, lentiviral transduction; settings: 1 hour; for LC3 lipidation upon agonist treatment: 20 ug/ml cGAMP, 40 μM MSA2 or 1 μM diABZI
T1 sequence (Q86WV6 whole entry): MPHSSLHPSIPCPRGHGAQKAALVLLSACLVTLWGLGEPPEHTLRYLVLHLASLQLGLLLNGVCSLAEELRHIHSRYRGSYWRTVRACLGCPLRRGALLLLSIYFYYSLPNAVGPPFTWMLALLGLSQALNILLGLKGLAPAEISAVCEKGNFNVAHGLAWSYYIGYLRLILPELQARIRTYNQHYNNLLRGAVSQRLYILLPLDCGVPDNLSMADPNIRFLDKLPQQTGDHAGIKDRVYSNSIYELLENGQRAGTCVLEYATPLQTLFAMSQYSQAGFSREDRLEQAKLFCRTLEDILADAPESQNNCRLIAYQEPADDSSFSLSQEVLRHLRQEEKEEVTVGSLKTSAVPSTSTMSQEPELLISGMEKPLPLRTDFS

STING [2] = experiment: RFP-LC3 induction and pSTING by FACS in HEK293T cells expressing STING WT or H50R; type: cell-based, human; settings: mutant vs WT STING, FIP200 KO 293T cells, agonist stimulation
Experimental: FACS based genome-wide CRISPR screen and mutagenesis screen: FIP200 KO 293T cells were generated by transfecting 293T cells with pXPR_023 (Addgene #52961), encoding Cas9 and an sgRNA against FIP200 and selecting cells with 2 μg/ml puromycin (Thermo Fisher Scientific #A1113803) for two days. FIP200 KO 293T cells were then transduced with pTRIP-PGK-Hygro-P2A-RFP-LC3, treated with 33 μg/ml hygromycin (Invivogen, #ant-hg-1) for 3 days, and then sorted to get a homogenous RFP+ population.
Mutagenesis screen: RFP-LC3 FIP200 KO 293T cells were infected with saturated mutagenesis library lentivirus at MOI=0.2, and selected with 20 μg/ml blasticidin for 2 days. 150M transduced cells were treated with diABZI for 1.5 hr, and then permeabilized with 1× perm buffer (PBS with 0.05% saponin and 0.1% glycine) for 4 min. Permed cells are then washed with 1×PBS, and fix, perm, and stained using BD Cytofix/Cytoperm kit and anti-pSTING Alexa647 (CST, #43499) at 1:100 dilution.
A sorting strategy similar to the genome-wide CRISPR screen was followed, sorting populations of LC3− and LC3+ HEK293T cells within the pSTING+ cell population (FIG. 3E), thus ensuring that the sorted cell mutants enabled expression of functional STING able to translocate to Golgi/endosomes where phosphorylation of STING occurs (Dobbs et al. 2015). […]
Target sequence in this assay (Q86WV6 153-340 limits assumed): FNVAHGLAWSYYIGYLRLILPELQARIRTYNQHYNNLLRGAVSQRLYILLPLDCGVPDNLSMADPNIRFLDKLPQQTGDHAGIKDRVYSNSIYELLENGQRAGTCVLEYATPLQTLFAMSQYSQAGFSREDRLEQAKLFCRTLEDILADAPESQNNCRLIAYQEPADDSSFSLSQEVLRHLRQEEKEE

STING [3] = experiment: p-STING and LC3B lipidation immunoblot in 293T cells expressing WT STING, STING AQQA or TMEM192-STING-LBD; type: cell-based, human; settings: 293T cells expressing the STING construct
Experimental: Genes that are essential for mediating STING-induced autophagy were systematically identify, with a special interest in identifying potential transporters responsible for ion leakage. […] A genome-wide CRISPR fluorescence-activated cell sorting (FACS) screen was carried out using HEK293T cells expressing RFP-LC3 and STING-HA with FIP200 knocked out in order to reduce background signal from basal autophagy. Following transduction with the sgRNA library, cells were stimulated with diABZI to induce STING activation and STING-HA+ cells were sorted into LC3− and LC3+ bins (FIG. 1A) to specifically identify genes that altered CASM activation without affecting STING activation. […] The STING itself may have mediated Golgi/endosomes proton leakage critical for subsequent assembly of V-ATPase and recruitment of ATG16L1 to initiate CASM (Xu et al. 2019). In order to assess this, whether the STING ligand-binding domain (LBD), which has been proposed to recruit LC3 through its LR motifs (Gui et al. 2019; Liu et al. 2019), could induce autophagy upon translocation to Golgi/endosomes was first tested. Autophagy induction was tested in 293T cells by WT STING, a STING oligomerization-deficient mutant (A277Q/Q273A STING, termed AQQA), and an endolysosome-localized STING fusion protein (the endolysosomal protein TMEM192 fused with the STING LBD) upon agonist stimulation. […]

NLRP3 = experiment: NLRP3-mNeongreen reporter: NLRP3 puncta in 293T cells expressing STING-HA; type: cell-based, human; settings: 1 μM diABZI, 1 hour
STING [4] = target: T1, STING; experiment: Organelle pH measurement (Lysosensor) after STING activation in BJ1 cells; type: cell-based; settings: human fibroblasts (BJ1), 1 μM diABZI, 1 hr
Experimental: Organelle pH Measurements and Image Acquisition: hTERT-immortalized BJ1 cells (ATCC CRL-2522) were plated in 24-well glass-bottom plates (Greiner Bio-One). After 24 hours, cells were stained for 30 minutes at 37° C. with 5 μM Lysosensor (Thermo Fisher Scientific cat #L7535), […] Hoechst (Thermo Fisher Scientific, cat. #62249), and 1 μM Bodipy TR Ceramide (Thermo Fisher Scientific cat #B34400) for Golgi labeling or 100 nM Lysotracker Deep Red (Thermo Fisher Scientific cat #L12492) for endolysosome labeling in Phenol-free DMEM medium with 10% FBS and 1% Pen-Strep. Cells were then washed five times with Phenol-free DMEM medium and stimulated with 1 μM DIABZI for 1 hr with or without the addition of 10 μM C53. […] An LED light engine (Lumencor CELESTA Light Engine) was used for fluorescence illumination and all hardware was controlled using NIS elements software. […]
Given the necessity of both the STING transmembrane domain and its translocation for autophagy induction, it was investigated whether the entire STING protein could cause ion leakage by either inducing membrane damage resulting in a secondary ion imbalance or by directly acting as an ion channel. […] The possibility that STING directly behaves as a channel for proton release into the cytosol upon translocation to the Golgi was assessed, the Golgi being an acidic compartment (Linders et al. 2022). […]

Compound: cyclic GMP-AMP [cGAMP]
- IL-1ß release upon STING agonist stimulation (NLRP3 inflammasome): induced

Compound: CO[C@@H]1C[C@@H](C[C@H]2CC[C@H](C)[C@H]([C@@H](C)C(=O)O)O2)O[C@]2(O[C@](C)([C@H]3CC[C@@](C)([C@@H]4O[C@@H]([C@H]5O[C@@](O)(CO)[C@H](C)C[C@@H]5C)C[C@@H]4C)O3)C[C@H]2C)[C@@H]1C [Nigericin]
- LC3 lipidation by independent ionophore stimulus (STING [1]; BJ1 cells, 2 μM Nigericin): induction of LC3 lipidation

Compound: STING H50R: human STING polypeptide with H50R substitution in TM2, inside the pore area
- LC3 induction within pSTING+ cells (STING-induced autophagy) (STING [2]): reduced
- LC3 induction within pSTING+ cells (STING-induced autophagy) (STING [2]; listed as H50R): strongly inhibit

Compound: AQQA: STING oligomerization-deficient mutant (A277Q/Q273A STING)
- autophagy induction (LC3B lipidation) upon agonist stimulation (STING [3]): impaired LC3B lipidation

Compound: COc1cc2cc(C(=O)CCC(=O)O)sc2cc1OC [MSA2]
- LC3 lipidation upon agonist treatment (STING [1]): LC3 lipidation was induced

- fluorescence within the endolysosomal compartment (STING [4]): only modestly altered
- pH within the Golgi apparatus (decreased fluorescence of Lysosensor Green dye) (STING [4]): significant increase in pH
- LC3 lipidation upon agonist treatment (STING [1]): LC3 lipidation was induced
Compound: CCn1nc(C)cc1C(=O)Nc1nc2cc(C(N)=O)cc(OC)c2n1C/C=C/Cn1c(NC(=O)c2cc(C)nn2CC)nc2cc(C(N)=O)cc(OCCCN3CCOCC3)c21 [diABZI]
- NLRP3 translocation upon stimulation (NLRP3): NLRP3 translocated from the cytoplasm to perinuclear vesicles
- IL-1ß release upon STING agonist stimulation (NLRP3 inflammasome): induced
